≈ marks a conversion by molar mass, not a printed value.

The subject of assay [1] is Enterobacter cloacae P99-. Kind of assay: MIC by agar-dilution (Diagnostic Sensitivity Test), inoculum 10^4 CFU/spot. It counts as cell-based. The conditions noted are these: P99, read-out: minimum inhibitory concentration (MIC). An excerpt: (§1) The pharmaceutically acceptable carbapenem compounds of the present invention are useful antibacterial agents having a broad spectrum of activity in vitro against standard laboratory microorganisms, both Gram-negative and Gram-positive, which are used to screen for activity against pathogenic bacteria. The antibacterial spectrum and potency of a particular compound may be determined in a standard test system. In particular the carbapenems of the present invention show good stability to beta-lactamases and have a particularly good elimination half life in mammals. In general compounds show significant improvement over imipenem.
(§2) The following results were obtained for representative compounds on a standard in vitro test system using Diagnostic Sensitivity Test. The antibacterial activity is described in terms of the minimum inhibitory concentration (MIC) determined by the agar-dilution technique with an inoculum size of 10^4 CFU/spot.

A further assay has as its system E. coli DCO. Described as above. Type of assay: cell-based. Conditions: Escherichia coli, read-out: minimum inhibitory concentration (MIC).
Excerpt: as §1, §2

The subject of another assay is P. morganii I + 001. The description is as above. It counts as cell-based. Conditions: Morganella morganii, read-out: minimum inhibitory concentration (MIC).
Excerpt: as §1, §2

The test system of a further assay is S. aureus Oxford. Described as above. Type of assay: cell-based. The conditions noted are these: Staphylococcus aureus, read-out: minimum inhibitory concentration (MIC).
Excerpt: as §1, §2

In another assay the test system is B. fragilis AMP S. Described as above. Type of assay: cell-based. The conditions noted are these: Bacteroides fragilis, read-out: minimum inhibitory concentration (MIC).
Excerpt: as §1, §2

The subject of assay [2] is Gram positive and negative, aerobic and anaerobic bacteria. The conditions noted are these: imipenem, background; cited from earlier work.

With `C[C@@H](O)[C@H]1C(=O)N2C(C(=O)O)=C(S[C@@H]3CN[C@H](C(=O)Nc4cccc(S(=O)(=O)O)c4)C3)[C@H](C)[C@H]12` [EXAMPLE 1, (1R,5S,6S,8R,2'S,4'S)-2-(2-(3-Sulfophenylcarbamoyl)pyrrolidin-4-ylthio)-6-(1-hydroxyethyl)-1-methylcarbapenem-3-carboxylic acid], the MIC came to 0.008 mg/L (≈ 0.0156 µM) in assay [1]; 0.015 mg/L (≈ 0.0293 µM) with E. coli DCO; 0.015 mg/L (≈ 0.0293 µM) in the assay on P. morganii I + 001; 0.125 mg/L (≈ 0.244 µM) with S. aureus Oxford; 0.25 mg/L (≈ 0.489 µM) in the assay on B. fragilis AMP S.
Take `C[C@@H](O)[C@H]1C(=O)N2C(C(=O)O)=C(SCCN=CN)C[C@H]12` [imipenem, N-formimidoyl thienamycin]: the “spectrum of antibacterial activity” value in assay [2] was “broad spectrum of antibacterial activity”.
